Common to all, as to format: in vivo, Wistar rats
The test system of experiment [1] is MPTP-lesioned rats (Parkinson's disease animal model). Description: Episodic-like memory test in MPTP-lesioned rats. Here is the method:
(§1) Thirty-nine male Wistar rats (306.2±0.9 g; BioLASCO Taiwan Co., Ltd.) were used as experimental animals in the present invention. All experimental procedures were performed according to the NIH Guide for the Care and Use of Laboratory Animals and were approved by the Animal Care Committee of the Chung Shan Medical University (IACUC approval No.: 434). All animals underwent stereotaxic surgery and MPTP were injected into the substantia nigra pars compacta (SNc) in the animals to establish Parkinson's disease animal model. One day after the surgery, the rats received daily dose of intraperitoneal (i.p.) injections of D-cycloserine (DCS) (0, 5, or 10 mg/kg/day) or saline at 18:00 for 13 days. The animals were divided respectively into groups of experimental group 0 (E0), receiving MPTP+saline, experimental group 1 (E1), receiving MPTP+DCS 5 mg/kg/day, experimental group 2 (E2), receiving MPTP+DCS 10 mg/kg/day and Sham-operated group/control group (CR), receiving saline (1 ml/kg/day, i.p.) (also called control group or Sham+saline group). The descriptions of “control group, experimental group 0, experimental group 1 and experimental group 2” were used below.
(§2) For the brain surgery, all animals were intraperitoneal injected with Zoletil (2 mg/kg; Virbac, Carros, Franc) and received stereotaxic surgery after anesthetization. MPTP-HCl (1 μmol in 2 μl of saline; Sigma, Mo., USA) (Da Cunha et al., Behav Brain Res, 2001, 124:9-18; Gevaerd et al., Brain Res Bull, 2001, 55: 101-6) or saline (2 μl) were microinjected into the substantia nigra pars compacta (SNc).
The episodic-like memory test was performed in an open field (60×60×40 cm, without roof allowing rats to aware external distal cues), 13 days after the MPTP lesion. The floor of the open field was divided into 9 areas of equal size. A video camera was mounted 160 cm above the center of the open field to record and analysis the behavior of rats. Two different sets of objects made of metal or plastic were used in the experiment. The objects weighed about 950 g and therefore, they were unmovable by the rats. The two objects differed in the diameter of base, height, color, shape, and surface texture (the metal object: column in shape, 6.5 cm in diameter, 12 cm high, silver-colored, smooth surface; the plastic object: cuboid in shape, a 7.5×5 cm cross section, 15 cm high, pellucid-colored, rough surface). One day before the test, rats were placed individually into the open field for twice and allowed to explore it (once for 5 min), with a 4 h interval, for adapting to the testing environment.
The procedure of episodic-like memory test was consistent with previous reported research (Li and Chao., Neurobiol Learn Mem 2008; 89:192-8). The method comprised two sample trials and one testing trial. In the first sample trial, the rats were placed in the open field with four identical objects (FIG. 1A, upper left), and allowed to explore them for 5 min. After an interval of 60 min, the rats were put into the same open field again and received the second sample trial for 5 min, wherein the objects were replaced with another objects and the spatial configuration was changed (FIG. 1A, lower left). After an additional interval of 60 min, the rats received a testing trial, wherein two identical objects from sample trial 1 (the “old” objects; “O”) and two identical objects from sample trial 2 (the “recent” objects; “R”) were presented. In the testing trial, animals encountered a mixed set consisting of two “O” and two “R” objects. One object from each of the two sets of objects was placed in the “same” location as in the sample trials (Os and Rs). The other two objects were “displaced” to new locations (Od and Rd) (FIG. 1A, lower right). Time spent on exploring the objects was recorded.

The subject of experiment [2] is activated microglia in SNc, striatum and hippocampus of MPTP-lesioned rats. Description: OX-6 (MHC class II) immunostaining, density of activated microglia. As to the method: as §1, §2
One day after the test of episodic-like memory, rats were sacrificed under deep anesthesia by CO2. For histological assessment, 5-6 randomly selected rats per group were perfused cardiacly with 4% paraformaldehyde in phosphate-buffered saline (PBS), and the brains were removed rapidly and post-fixed in 20% sucrose solution with 4% paraformaldehyde at 4° C. The frozen coronal brain sections were cut into 30 μm and further immunostained with mouse monoclonal antibodies against rat tyrosine hydroxylase (TH) (1:2000; Zymade, USA) or rat MHC class II (OX-6; 1:200; BD Biosciences Pharmingen, CA, USA) at 4° C. overnight, identical to the method used in our previous report (Wang, Wu, Liou, et. al, Behav Neurosci, 2009). In sections containing hippocampus, neurons in the hippocampus was identified by Nissl staining method.
A microscope (ZEISS AXioskop2, Germany) disposed with a CCD (Optronics, USA) and the Image Pro Plus Software 6.0 (Media Cybernetics, CA, USA) was used for observation. The three square areas (measuring 36,477, 18,769, and 2,354 μm^2) were applied respectively to determine the relative optical density of TH immunoreactivity in the striatum and the neuronal density in the SNc and hippocampal CA1 area. The images of TH staining were converted to the gray scale for measuring the density of DAergic projections. The gray level of a given area of interest was measured, and the background staining measured in non-immunoreactive corpus callosum was subtracted. […] The somas of TH immunoreactive neurons located in this area were counted. The density of activated microglia was measured, according to the methods described in the literature (Sugama S, et al., Brain Res, 2003, 964: 288-94). […] Then, the numbers of activated microglial cells in the SNc, striatum, and hippocampus were counted in the areas of interest (measuring 18,769, 36,477, and 18,769 μm^2, respectively). […]

The subject of experiment [3] is pyramidal neurons in hippocampal CA1 area of MPTP-lesioned rats. Description: Nissl staining of hippocampal CA1 pyramidal cell layer, neuronal density. Conditions: DCS 10 mg/kg/day. As to the method: Thirty-nine male Wistar rats (306.2±0.9 g; BioLASCO Taiwan Co., Ltd.) were used as experimental animals in the present invention. All experimental procedures were performed according to the NIH Guide for the Care and Use of Laboratory Animals and were approved by the Animal Care Committee of the Chung Shan Medical University (IACUC approval No.: 434). All animals underwent stereotaxic surgery and MPTP were injected into the substantia nigra pars compacta (SNc) in the animals to establish Parkinson's disease animal model. One day after the surgery, the rats received daily dose of intraperitoneal (i.p.) injections of D-cycloserine (DCS) (0, 5, or 10 mg/kg/day) or saline at 18:00 for 13 days. […]
A microscope (ZEISS AXioskop2, Germany) disposed with a CCD (Optronics, USA) and the Image Pro Plus Software 6.0 (Media Cybernetics, CA, USA) was used for observation. […] The gray level of a given area of interest was measured, and the background staining measured in non-immunoreactive corpus callosum was subtracted. […] The somas of TH immunoreactive neurons located in this area were counted. The density of activated microglia was measured, according to the methods described in the literature (Sugama S, et al., Brain Res, 2003, 964: 288-94). […]

In experiment [4] the test system is DAergic neurons in striatum and SNc of MPTP-lesioned rats. Nature of the experiment: Tyrosine hydroxylase (TH) immunostaining of striatum and SNc, image analysis. As to the method: as §1, §2
One day after the test of episodic-like memory, rats were sacrificed under deep anesthesia by CO2. For histological assessment, 5-6 randomly selected rats per group were perfused cardiacly with 4% paraformaldehyde in phosphate-buffered saline (PBS), and the brains were removed rapidly and post-fixed in 20% sucrose solution with 4% paraformaldehyde at 4° C. […]
A microscope (ZEISS AXioskop2, Germany) disposed with a CCD (Optronics, USA) and the Image Pro Plus Software 6.0 (Media Cybernetics, CA, USA) was used for observation. […] The gray level of a given area of interest was measured, and the background staining measured in non-immunoreactive corpus callosum was subtracted. […] The somas of TH immunoreactive neurons located in this area were counted. The density of activated microglia was measured, according to the methods described in the literature (Sugama S, et al., Brain Res, 2003, 964: 288-94). […] Then, the numbers of activated microglial cells in the SNc, striatum, and hippocampus were counted in the areas of interest (measuring 18,769, 36,477, and 18,769 μm^2, respectively). […]

Turning to `N[C@@H]1CONC1=O` [DCS, D-4-amino-3-isoxazolidone], in experiment [1] (DCS 10 mg/kg/day), the “function of episodic-like memory after MPTP lesion” value is listed as “recovered”. Further, the “time exploring old object, same location (Os) vs different location (Od), paired t-test” value in experiment [1] (MPTP+DCS 5 mg/kg/day (E1)) is reported as “had the trend of significance”; in experiment [1] (MPTP+DCS 10 mg/kg/day (E2), P<0.05) it was “spent a longer time exploring the old object placed in the same location (Os)”. For the same compound, the “time exploring recent object, displaced (Rd) vs same place (Rs), paired t-test” value in experiment [1] (MPTP+DCS 5 mg/kg/day (E1)) is “no differences between exploring Rs and exploring Rd”; in experiment [1] (MPTP+DCS 10 mg/kg/day (E2), P<0.001) it was “spent a longer time exploring the displaced object (Rd)”. Further, the “total exploration time in the test trial” value in experiment [1] (MPTP+DCS 5 mg/kg/day i.p. for 13 days (E1)) is 54.4 ± 5.9 s; in experiment [1] (MPTP+DCS 10 mg/kg/day i.p. for 13 days (E2)), 25.4 ± 4.3 s. Further, the “MPTP-induced microglial activation in the SNc” value in experiment [2] (DCS 5 mg/kg/day) and in experiment [2] (DCS 10 mg/kg/day) was “suppressed” each time. In addition, the “MPTP-induced microglial activation in the hippocampus” value in experiment [2] (DCS 5 mg/kg/day) and in experiment [2] (DCS 10 mg/kg/day) was “suppressed” in each case. The “microglial activation in the striatum” value in experiment [2] (DCS 5 and 10 mg/kg/day groups vs other groups) was “no significant difference between the groups”. In addition, the “MPTP-induced decrease of neuronal density in the pyramidal cell layer of hippocampal CA1 area” value in experiment [3] is “blocked”. The “MPTP-induced reduction in relative optical density of TH immunoreactivity in the striatum” value in experiment [4] (DCS 5 mg/kg/day) and in experiment [4] (DCS 10 mg/kg/day) was “blocked” in each case. The “MPTP-induced reduction in the density of DAergic neurons in the SNc” value in experiment [4] (DCS 5 mg/kg/day) and in experiment [4] (DCS 10 mg/kg/day) was “blocked” each time.

Source of the values: US20110160260A1, “Method of Treating a Neurodegenerative Disorder” (Chung Shan Medical University, priority 2009, published 2011).
